Assay results reported in patent publication US20080193963A1, “Method of Determining the State of Activation of a Protein” (NAMBITION GMBH, priority 2005, published 2008).

Biological target: T1, NhaA (Escherichia coli, UniProt P13738)
T1 construct: Pulling NhaA (402aa) from either the N- or C-terminus; His6 (C); made in house; host or cells: E. coli BL21(DE3)
Experiment: Single-molecule force spectroscopy (SMFS) unfolding of NhaA in presence of inhibitor
Format: binding
Procedure: We used a NanoWizard AFM (JPK Instruments, Germany) with an 850 nm laser detection system. As AP absorbs light between 290 and 350 nm, we avoided double-photon excitation and photobleaching by the laser. The spring constants of the 200 μm long (di-Veeco, USA) and 80μ long (Olympus, Japan) Si3N4 AFM cantilevers used were determined using the equipartion theorem (Butt H. J., 1995; Florin, 1995). NhaA was reconstituted into E. coli polar lipid bilayers forming two-dimensional crystals (Williams et al., 1999). Membranes were immobilized on freshly cleaved mica in 200 mM KCl, 10% glycerol, 25 mM K^+-acetate, pH 4.0 for 20 min. Experiments were performed in buffer solutions containing 190 mM KCl and 10 mM NaCl at pH 7.7 (20 mM tris-HCl) and pH 4.0 (20 mM citric acid). AP concentrations of prepared solutions were determined by their optical densities at λ=305.5 using the excitation coefficient eAP=7500 M^−1·cm^−1 (Additional Ref. 151). Solutions containing AP were kept away from light and experiments were performed in a dark room. Buffer solutions were made in fresh nano-pure water (18.2MΩ·cm^−1), using p. a. purity grade reagents from Sigma/Merck. AFM topographs of immobilized membrane patches resolved the crystalline NhaA arrangements, which were selected to unfold individual proteins (Kedrov et al., 2004).
Only C-terminal unfolding events were studied as they are dominant at pH 7.7 (Additional Ref. 152). To obtain the unfolded polpeptide chain length each force peak was fifted using the worm-like-chain (Bustamante et al., 1994) model as described ([…]). Individual unfolding barriers were located by subtracting the unfolded polypeptide length fron the C-terminus. For each force peak (unfolding barrier) the probability and average forces were calculated. At every studied condition up to 150 single-molecule unfolding events were analyzed using Igor Pro (Wavemetrics Inc., USA) and home-written macros. To probe the statistical difference of data sets the data were tested against one-way ANOVA analysis.

T1 sequence (P13738 whole entry): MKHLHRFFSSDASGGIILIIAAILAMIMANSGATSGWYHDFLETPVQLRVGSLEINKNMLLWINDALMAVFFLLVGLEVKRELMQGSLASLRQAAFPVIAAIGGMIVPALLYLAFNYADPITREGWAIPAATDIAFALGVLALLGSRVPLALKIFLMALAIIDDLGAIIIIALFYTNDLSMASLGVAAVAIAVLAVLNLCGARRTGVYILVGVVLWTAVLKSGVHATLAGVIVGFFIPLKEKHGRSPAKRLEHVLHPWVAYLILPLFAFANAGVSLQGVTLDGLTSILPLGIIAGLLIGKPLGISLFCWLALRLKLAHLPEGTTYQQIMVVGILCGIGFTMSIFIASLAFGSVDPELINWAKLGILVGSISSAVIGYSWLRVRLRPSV

NC1=Nc2cccc3cccc(c23)N1 [AP, 2-aminoperimidine]
"stable" fraction in histograms of force at helix IX (AP binding) with increasing Na+ concentration (40 μM AP, 10 or 200 μM NaCl as printed): drastic decrease | average strength of the interaction detected by the 125aa force peak (helix XI as printed) (40 μM AP, NhaA activated at pH 7.7, mean ±SD, n=95, without AP 75±29 pN (n=61), p<0.0001): 105±41 pN | enhanced interaction strength of a fraction of NhaA molecules (125aa peak) after exposure to AP (pH 7.7, NhaA.AP complex population, free NhaA ≈75 pN): ≈ 140 pN | NhaA molecules that established enhanced stability at α-helix IX (pH-locked conformation, pH 4.0, incubated with 40 μM AP): ≈ 15%
